Literature values as cited in patent US5220018A, “Cholecystokinin antagonists” (Merck & Co., Inc., priority 1992, dated 1993).
Non-standard residues stand in square brackets, D forms with d. Residues, ends and D or L forms follow the SMILES beside them. *: point of attachment. sY = N[C@@H](Cc1ccc(OS(=O)(=O)O)cc1)C(=O)O; Cbz = O=C(OCc1ccccc1)*

Experiments:
[1] = test system: CCK-B receptors; conditions: literature, Bock et al. 1989; cited from earlier work
[2] = test system: CCK receptor; conditions: literature; cited from earlier work
[3] = test system: gastrin; conditions: in vitro, literature; cited from earlier work

Row | SMILES | CCK receptor activity in words [2] | further results
1 | Cc1cccc(NC(=O)N[C@@H]2N=C(c3ccccc3)c3ccccc3N(C)C2=O)c1 [(R)-N-(2,3-dihydro-1-methyl-2-oxo-5-phenyl-1H-1,4-benzodiazepin-3-yl)-N^1-(3-methylphenyl) urea] |  | CCK-B receptor antagonism in words [1]: potent and selective antagonist of CCK-B receptors
2 | CSCC[C@H](NC(=O)[C@H](Cc1ccc(OS(=O)(=O)O)cc1)NC(=O)OCc1ccccc1)C(=O)NCC(=O)N[C@@H](Cc1c[nH]c2ccccc12)C(=O)N[C@@H](CCSC)C(=O)N[C@@H](CC(=O)O)C(N)=O [Cbz-Tyr(SO3 H)-Met-Gly-Trp-Met-Asp-NH2] (Cbz-[sY]MGWMD-NH2) | partial agonist | 
3 | CCCC(=O)Nc1nc2c(ncn2[C@@H]2O[C@@H]3COP(=O)(O)O[C@H]3[C@H]2OC(=O)CCC)c(=O)[nH]1 [dibutyryl cyclic GMP] | the most potent | 
4 | CCCN(CCC)C(=O)C(CCC(=O)O)NC(=O)c1ccccc1 (stereo not shown) [proglumide] |  | gastrin antagonism in words [3]: very weak in vitro antagonists
